The results in this text go back to patent publication US20240132431A1, “METHOD FOR ALKYLATING ACIDIC FUNCTIONAL GROUP” (Chugai Seiyaku Kabushiki Kaisha, priority 2021, published 2024).

In the assay the target is T1, Bcl-2 protein (Recombinant Human Bcl-2 Protein) (Homo sapiens, UniProt P10415).
T1 construct: purchased Novus NBP2-34889
Put plainly: Binding evaluation of mixture library compounds to Bcl-2 using AS-MS (affinity selection mass spectrometry). The following applies: for ASMS ratio (%) n = 1 / ASMS ratio (%) n = 2: ASMS Ratio(%)=(A−C)/B×100; for ASMS ratio (%) n = 1: replicate n = 1; for ASMS ratio (%) n = 2: replicate n = 2. In outline:
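Pooled library of ~1200 compounds ([…] each, final) incubated with recombinant human Bcl-2 (20 μM final) in Tris-HCl pH 7.4, NaCl, Tween-20, DTT buffer, dark, 23° C., 1 h. Bound fraction recovered by SEC spin column, organic extraction, reversed-phase LC/MS. ASMS Ratio (%) = (A−C)/B×100 versus protein-free standard and SEC blank.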

[1] abbreviates: AS-MS, mixture of 1200 compounds, Bcl-2.
[2] abbreviates: AS-MS on the mixture of 1200 library compounds.

T1 sequence (P10415 whole entry): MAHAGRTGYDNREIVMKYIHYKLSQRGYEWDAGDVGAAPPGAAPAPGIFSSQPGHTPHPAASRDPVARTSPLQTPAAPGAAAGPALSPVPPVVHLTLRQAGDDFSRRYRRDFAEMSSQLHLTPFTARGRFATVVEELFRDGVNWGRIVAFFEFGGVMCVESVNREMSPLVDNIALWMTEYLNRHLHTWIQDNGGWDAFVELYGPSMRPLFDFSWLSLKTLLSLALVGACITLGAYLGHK

Take “4-[4-[[4-(3-Ethoxyphenyl)naphthalen-1-yl]methyl]piperazin-1-yl]-N-propylbenzamide [B1M044-01]”: under setting [1], the “ASMS ratio (%) n = 1” value is reported as 1.0% and the “ASMS ratio (%) n = 2” value is recorded as 1.1%.

On to `CCOc1cccc(-c2ccc(C(=O)N3CCN(c4ccc(C(=O)NCC(F)(F)F)cc4)CC3)c3ccccc23)c1` [B1K035-01, 4-[4-[4-(3-Ethoxyphenyl)naphthalene-1-carbonyl]piperazin-1-yl]-N-(2,2,2-trifluoroethyl)benzamide], for which, under setting [1], the “ASMS ratio (%) n = 1” value came out at 4.8% and the “ASMS ratio (%) n = 2” value was 4.5%.

For `CCOc1cccc(-c2ccc(C(C)N3CCN(c4ccc(C(=O)Nc5ccc(OC)cc5)cc4)CC3)c(F)c2)c1` (centres unmarked) [B1O099-01, 4-[4-[1-[4-(3-Ethoxyphenyl)-2-fluorophenyl]ethyl]piperazin-1-yl]-N-(4-methoxyphenyl)benzamide], under setting [2], the “ASMS ratio (%) n = 1” value is given as 4.7% and the “ASMS ratio (%) n = 2” value was found to be 1.7%.

Turning to `CCOc1cncc(-c2ccc(C(C)N3CCN(c4ccc(C(=O)NS(=O)(=O)C(C)(C)C)cc4)CC3)cc2)c1` (centres unmarked) [B2L098-01, N-tert-Butylsulfonyl-4-[4-[1-[4-(5-ethoxypyridin-3-yl)phenyl]ethyl]piperazin-1-yl]benzamide], the “ASMS ratio (%)” value is 3.9% (n = 1) and −5.0% (n = 2).

As for `CCOc1cncc(-c2ccc(CN3CCN(c4ccc(C(=O)NS(=O)(=O)C(C)(C)C)cc4)CC3)cc2F)c1` [B2L052-01], the “ASMS ratio (%)” value (n = 1) is 2.7% and the “ASMS ratio (%)” value (n = 2) was 1.0%.

As to `CCOc1cccc(-c2ccc(CN3CCN(c4ccc(C(=O)NS(C)(=O)=O)nn4)CC3)c(CC)c2)c1` [B2I075-01], the “ASMS ratio (%)” value reads like this: (n = 1) 0.0%; (n = 2) 0.0%.

With `CCOc1cccc(-c2ccc(CN3CCN(c4ccc(C(=O)Nc5ccc(OC)cc5)cc4)CC3)cc2F)c1` [B1O051-01, 4-[4-[[4-(3-Ethoxyphenyl)-3-fluorophenyl]methyl]piperazin-1-yl]-N-(4-methoxyphenyl)benzamide], under setting [2], the “ASMS ratio (%) n = 1” value was 3.9% and the “ASMS ratio (%) n = 2” value is recorded as −1.9%.

For the compound `CCOc1cncc(-c2csc(C(=O)N3CCN(c4ccc(C(=O)NS(=O)(=O)c5ccc(NCCSc6ccccc6)c([N+](=O)[O-])c5)nn4)CC3)c2)c1` [B2Q002-01, 6-[4-[4-(5-Ethoxypyridin-3-yl)thiophene-2-carbonyl]piperazin-1-yl]-N-[3-nitro-4-(2-phenylsulfanylethylamino)phenyl]sulfonylpyridazine-3-carboxamide], where the note is “AS-MS, mixture library, Bcl-2”, the “ASMS ratio (%) n = 1” value was determined as 24.5% and the “ASMS ratio (%) n = 2” value is reported as 17.2%.

In the case of `CCOc1cncc(-c2cc(CN3CCN(c4ccc(C(=O)NS(=O)(=O)CC56CC7CC(CC(C7)C5)C6)cc4)CC3)cc(OC(C)C)c2)c1` [B2A058-01, N-(1-Adamantylmethylsulfonyl)-4-[4-[[3-(5-ethoxypyridin-3-yl)-5-propan-2-yloxyphenyl]methyl]piperazin-1-yl]benzamide], where the note is “AS-MS, mixture library, Bcl-2”, the “ASMS ratio (%) n = 1” value is given as 4.8% and the “ASMS ratio (%) n = 2” value was −10.6%.

On to `CCOc1cncc(-c2cnn(-c3cc(C(=O)N4CCN(c5ccc(C(=O)NS(=O)(=O)CCC(F)(F)F)nn5)CC4)cc(C(F)(F)F)c3)c2)c1` [B2N022-01, 6-[4-[3-[4-(5-Ethoxypyridin-3-yl)pyrazol-1-yl]-5-(trifluoromethyl)benzoyl]piperazin-1-yl]-N-(3,3,3-trifluoropropylsulfonyl)pyridazine-3-carboxamide], for which the “ASMS ratio (%)” value reads like this: (n = 1) 0.0%; (n = 2) 0.0%.

On to “4-[4-[2-[2-(3-Ethoxyphenyl)ethynyl]benzoyl]piperazin-1-yl]-N-propylbenzamide [B1M097-01]”, for which, under setting [2], the “ASMS ratio (%) n = 1” value worked out at 1.1% and the “ASMS ratio (%) n = 2” value was determined as 0.3%.

Regarding `CCOc1cccc(C#Cc2ccccc2C(=O)N2CCN(c3ccc(C(=O)NCC45CC6CC(CC(C6)C4)C5)cc3)CC2)c1` [B1A029-01, N-(1-Adamantylmethyl)-4-[4-[2-[2-(3-ethoxyphenyl)ethynyl]benzoyl]piperazin-1-yl]benzamide], under setting [1], the “ASMS ratio (%) n = 1” value is given as −22.3% and the “ASMS ratio (%) n = 2” value is listed as −13.0%.

With `CCOc1cncc(-c2ccc(C(=O)N3CCN(c4ccc(C(=O)NS(C)(=O)=O)nn4)CC3)c3ccccc23)c1` [B2I014-01, 6-[4-[4-(5-Ethoxypyridin-3-yl)naphthalene-1-carbonyl]piperazin-1-yl]-N-methylsulfonylpyridazine-3-carboxamide], under “AS-MS, mixture library, Bcl-2”, the “ASMS ratio (%) n = 1” value is listed as 1.0% and the “ASMS ratio (%) n = 2” value was determined as 2.3%.

As to “4-[4-[1-[4-(5-Ethoxypyridin-3-yl)phenyl]ethyl]piperazin-1-yl]-N-propylbenzamide [B1M004-01]”, under setting [1], the “ASMS ratio (%) n = 1” value worked out at 0.0% and the “ASMS ratio (%) n = 2” value is 0.0%.

As to `CCOc1cncc(-c2cc(OC)c(CN3CCN(c4ccc(C(=O)NS(=O)(=O)CC56CC7CC(CC(C7)C5)C6)nn4)CC3)c(OC)c2)c1` [B2A086-01, N-(1-Adamantylmethylsulfonyl)-6-[4-[[4-(5-ethoxypyridin-3-yl)-2,6-dimethoxyphenyl]methyl]piperazin-1-yl]pyridazine-3-carboxamide], for the setting “AS-MS, mixture library, Bcl-2”, the “ASMS ratio (%) n = 1” value came out at 0.0% and the “ASMS ratio (%) n = 2” value was determined as 0.0%.

For `CCOc1cccc(-c2cc(CN3CCN(c4ccc(C(=O)N(CC)CC)nn4)CC3)cc(OCC)c2)c1` [B4J081-01, 6-[4-[[3-Ethoxy-5-(3-ethoxyphenyl)phenyl]methyl]piperazin-1-yl]-N,N-diethylpyridazine-3-carboxamide], where the note is “AS-MS, mixture library, Bcl-2”, the “ASMS ratio (%) n = 1” value amounted to 0.0% and the “ASMS ratio (%) n = 2” value came to 0.0%.

For `CCOc1cncc(-c2cc(CN3CCN(c4ccc(C(=O)NS(=O)(=O)CCC(F)(F)F)cc4)CC3)cc(OC(F)(F)F)c2)c1` [B2N064-01, 4-[4-[[3-(5-Ethoxypyridin-3-yl)-5-(trifluoromethoxy)phenyl]methyl]piperazin-1-yl]-N-(3,3,3-trifluoropropylsulfonyl)benzamide], the “ASMS ratio (%)” value is reported as 0.0% (n = 1) and 0.0% (n = 2).

In the case of `CCOc1cncc(C#Cc2cc(C(=O)N3CCN(c4ccc(C(=O)NS(=O)(=O)c5ccc(NCCSc6ccccc6)c(C(F)(F)F)c5)cc4)CC3)cc(C(F)(F)F)c2)c1` [B2R042-01, 4-[4-[3-[2-(5-Ethoxypyridin-3-yl)ethynyl]-5-(trifluoromethyl)benzoyl]piperazin-1-yl]-N-[4-(2-phenylsulfanylethylamino)-3-(trifluoromethyl)phenyl]sulfonylbenzamide], the “ASMS ratio (%)” value came to 3.4% (n = 1) and 6.0% (n = 2).

In the case of `CCOc1cccc(-c2cc(C(=O)N3CCN(c4ccc(C(=O)NCC56CC7CC(CC(C7)C5)C6)nn4)CC3)cc(C(C)(C)C)c2)c1` [B1A015-01, N-(1-Adamantylmethyl)-6-[4-[3-tert-butyl-5-(3-ethoxyphenyl)benzoyl]piperazin-1-yl]pyridazine-3-carboxamide], under setting [1], the “ASMS ratio (%) n = 1” value is −0.9% and the “ASMS ratio (%) n = 2” value is reported as −20.6%.

As to `CCOc1cncc(-c2ccc(CN3CCN(c4ccc(C(=O)NCC56CC7CC(CC(C7)C5)C6)nn4)CC3)cc2C)c1` [B1A074-01, N-(1-Adamantylmethyl)-6-[4-[[4-(5-ethoxypyridin-3-yl)-3-methylphenyl]methyl]piperazin-1-yl]pyridazine-3-carboxamide], under setting [1], the “ASMS ratio (%) n = 1” value is 3.2% and the “ASMS ratio (%) n = 2” value was −0.1%.

For the compound “6-[4-[[4-(3-Ethoxyphenyl)-2-methoxyphenyl]methyl]piperazin-1-yl]-N-propylpyridazine-3-carboxamide [B1M094-01]”, under setting [2], the “ASMS ratio (%) n = 1” value is on record as −1.5% and the “ASMS ratio (%) n = 2” value is −2.1%.

With `CCOc1cncc(-c2cc(C(=O)N3CCN(c4ccc(C(=O)N(CC)CC)nn4)CC3)cc(C(C)(C)C)c2)c1` [B4J016-01, 6-[4-[3-tert-Butyl-5-(5-ethoxypyridin-3-yl)benzoyl]piperazin-1-yl]-N,N-diethylpyridazine-3-carboxamide], under setting [2], the “ASMS ratio (%) n = 1” value was 0.0% and the “ASMS ratio (%) n = 2” value is on record as 0.9%.

`CCOc1cncc(C#Cc2cc(C(=O)N3CCN(c4ccc(C(=O)NCC(F)(F)F)cc4)CC3)cc(C(F)(F)F)c2)c1` [B1K042-01, 4-[4-[3-[2-(5-Ethoxypyridin-3-yl)ethynyl]-5-(trifluoromethyl)benzoyl]piperazin-1-yl]-N-(2,2,2-trifluoroethyl)benzamide]: under setting [1], the “ASMS ratio (%) n = 1” value was determined as 5.0% and the “ASMS ratio (%) n = 2” value was −0.1%.

As to `CCOc1cncc(C#Cc2ccccc2CN2CCN(c3ccc(C(=O)N(C)CC45CC6CC(CC(C6)C4)C5)cc3)CC2)c1` [B3A070-01, N-(1-Adamantylmethyl)-4-[4-[[2-[2-(5-ethoxypyridin-3-yl)ethynyl]phenyl]methyl]piperazin-1-yl]-N-methylbenzamide], under setting [2], the “ASMS ratio (%) n = 1” value stood at 7.7% and the “ASMS ratio (%) n = 2” value is listed as −8.1%.

For the compound `CCOc1cncc(C#Cc2ccccc2CN2CCN(c3ccc(C(=O)N(C)CC45CC6CC(CC(C6)C4)C5)nn3)CC2)c1` [B3A096-01, N-(1-Adamantylmethyl)-6-[4-[[2-[2-(5-ethoxypyridin-3-yl)ethynyl]phenyl]methyl]piperazin-1-yl]-N-methylpyridazine-3-carboxamide], under setting [2], the “ASMS ratio (%) n = 1” value is listed as 7.7% and the “ASMS ratio (%) n = 2” value stood at 2.4%.
